One experiment relates to Erysiphe graminis. Put plainly: Foliar fungal disease test on Erysiphe graminis, plants inoculated 24 hours before treatment (Table V). As to conditions: plants inoculated 24 hours before treatment. Format: in vivo. On the set-up: key: 4: no disease; 3: trace −5% of disease on untreated plants; 6-25% of disease on untreated plants; 1: 26-59% of disease on untreated plants; 60-100% of disease on untreated plants.

Experiment [1] deals with foliar fungal diseases of plants. It is filed as in vivo. On the set-up: key to disease control grading, […] (VINE): 4: no disease; 3: trace −5% of disease on untreated plants; key to disease control grading, PUCCINIA RECONDITA (WHEAT) / disease control grading, VENTURIA INAEQUALIS (APPLE) / disease control grading, CERCOSPORA ARACHIDICOLA (PEANUT) / disease control grading, PH[…] (TOMATO) / disease control grading, P[…] (RICE): 4: no disease; 3: trace −5% of disease on untreated plants; 6-25% of disease on untreated plants; 1: 26-59% of disease on untreated plants; 60-100% of disease on untreated plants. As to conditions: applied to soil (roots) and foliage one or two days before inoculation; for disease control grading, CERCOSPORA ARACHIDICOLA (PEANUT): Cercospora arachidicola on peanut; for disease control grading, P[…] (RICE): P[…] on rice; for disease control grading, PH[…] (TOMATO): Ph[…] on tomato; for disease control grading, PUCCINIA RECONDITA (WHEAT): Puccinia recondita on wheat; for disease control grading, VENTURIA INAEQUALIS (APPLE): Venturia inaequalis on apple; for disease control grading, […] (VINE): […] on vine.

The structures appear in SMILES notation.

Take `CO/C=C(/C(=O)OC)c1ccccc1COc1cccc(N)c1` [34 (Table I)]: the “disease control grading, ERYSIPHE GRAMINIS (BARLEY)” value (“disease control grading … (BARLEY)” below) with Erysiphe graminis is given as 0 (60-100% of disease on untreated plants). Further, in experiment [1], the “disease control grading, CERCOSPORA ARACHIDICOLA (PEANUT)” value (“disease control grading … (PEANUT)” below) is 0 (60-100% of disease on untreated plants); the “disease control grading, P[…] (RICE)” value is on record as 0 (60-100% of disease on untreated plants); the “disease control grading, PH[…] (TOMATO)” value was found to be 4; the “disease control grading, PUCCINIA RECONDITA (WHEAT)” value (“disease control grading … (WHEAT)” below) is reported as 3 (trace −5% of disease on untreated plants). Further, in experiment [1], the “disease control grading, VENTURIA INAEQUALIS (APPLE)” value (shortened to “disease control grading … (APPLE)”) is 3 (trace −5% of disease on untreated plants) and the “disease control grading, […] (VINE)” value is on record as 4.
For the compound `CCc1ccccc1OCc1ccccc1/C(=C\OC)C(=O)OC` [27 (Table I)], the “disease control grading … (BARLEY)” value in the experiment on Erysiphe graminis was determined as 4. In experiment [1], the “disease control grading … (PEANUT)” value came out at 4; the “disease control grading, P[…] (RICE)” value is on record as 1 (26-59% of disease on untreated plants); the “disease control grading, PH[…] (TOMATO)” value is reported as 4; the “disease control grading … (WHEAT)” value was 4. In experiment [1], the “disease control grading … (APPLE)” value came to 4 and the “disease control grading, […] (VINE)” value was 0 (60-100% of disease on untreated plants).
Consider `CO/C=C(/C(=O)OC)c1ccccc1COc1cc(C(F)(F)F)ccn1` [174 (Table I)], for which, in the experiment with Erysiphe graminis, the “disease control grading … (BARLEY)” value was 4. In experiment [1], the “disease control grading … (PEANUT)” value is 4; the “disease control grading, P[…] (RICE)” value was 0 (60-100% of disease on untreated plants); the “disease control grading, PH[…] (TOMATO)” value worked out at 4; the “disease control grading … (WHEAT)” value is listed as 4. In addition, in experiment [1], the “disease control grading … (APPLE)” value is given as 4 and the “disease control grading, […] (VINE)” value worked out at 4.
As for `CO/C=C(/C(=O)OC)c1ccccc1COc1cccc(Oc2ccccc2OC)c1` [173 (Table I)], the “disease control grading … (BARLEY)” value with Erysiphe graminis is 3 (trace −5% of disease on untreated plants). In experiment [1], the “disease control grading … (PEANUT)” value was found to be 4; the “disease control grading, P[…] (RICE)” value is on record as 0 (60-100% of disease on untreated plants); the “disease control grading, PH[…] (TOMATO)” value was found to be 4; the “disease control grading … (WHEAT)” value worked out at 4. In addition, in experiment [1], the “disease control grading … (APPLE)” value was determined as 4 and the “disease control grading, […] (VINE)” value was found to be 4.
With `CO/C=C(/C(=O)OC)c1ccccc1COc1cccc(C(C)(C)C)c1` [29 (Table I)], the “disease control grading … (BARLEY)” value in the experiment on Erysiphe graminis is 2 (6-25% of disease on untreated plants). Moreover, in experiment [1], the “disease control grading … (PEANUT)” value was 4; the “disease control grading, P[…] (RICE)” value worked out at 4; the “disease control grading, PH[…] (TOMATO)” value worked out at 4; the “disease control grading … (WHEAT)” value worked out at 4. Also, in experiment [1], the “disease control grading … (APPLE)” value stood at 4 and the “disease control grading, […] (VINE)” value is on record as 4.
As to `CO/C=C(/C(=O)OC)c1ccccc1COc1ccccn1` [67 (Table I)], the “disease control grading … (BARLEY)” value in the experiment with Erysiphe graminis is recorded as 4. Also, in experiment [1], the “disease control grading … (PEANUT)” value is recorded as 4; the “disease control grading, P[…] (RICE)” value amounted to 4; the “disease control grading, PH[…] (TOMATO)” value stood at 4; the “disease control grading … (WHEAT)” value is 4. Also, in experiment [1], the “disease control grading … (APPLE)” value is reported as 4 and the “disease control grading, […] (VINE)” value came out at 4.
Turning to `CO/C=C(/C(=O)OC)c1ccccc1COc1cccc(CO)c1` [178 (Table I)], in the experiment with Erysiphe graminis, the “disease control grading … (BARLEY)” value was 0 (60-100% of disease on untreated plants). Moreover, in experiment [1], the “disease control grading … (PEANUT)” value is 3 (trace −5% of disease on untreated plants); the “disease control grading, P[…] (RICE)” value is on record as 2 (6-25% of disease on untreated plants); the “disease control grading, PH[…] (TOMATO)” value is listed as 2 (6-25% of disease on untreated plants); the “disease control grading … (WHEAT)” value was 3 (trace −5% of disease on untreated plants). In addition, in experiment [1], the “disease control grading … (APPLE)” value is 0 (60-100% of disease on untreated plants) and the “disease control grading, […] (VINE)” value was 4.
With `CO/C=C(/C(=O)OC)c1ccccc1COc1cccc(/N=C/c2ccccc2)c1` [180 (Table I)], the “disease control grading … (BARLEY)” value with Erysiphe graminis is on record as 0 (60-100% of disease on untreated plants). Besides, in experiment [1], the “disease control grading … (PEANUT)” value came out at 4; the “disease control grading, P[…] (RICE)” value was 2 (6-25% of disease on untreated plants); the “disease control grading, PH[…] (TOMATO)” value is reported as 4; the “disease control grading … (WHEAT)” value was 3 (trace −5% of disease on untreated plants). For the same compound, in experiment [1], the “disease control grading … (APPLE)” value is reported as 0 (60-100% of disease on untreated plants) and the “disease control grading, […] (VINE)” value worked out at 4.
With `CO/C=C(/C(=O)OC)c1ccccc1COc1cccc(C)c1` [164 (Table I)], the “disease control grading … (BARLEY)” value in the experiment on Erysiphe graminis worked out at 4. Moreover, in experiment [1], the “disease control grading … (PEANUT)” value is on record as 4; the “disease control grading, P[…] (RICE)” value was 4; the “disease control grading, PH[…] (TOMATO)” value is given as 3 (trace −5% of disease on untreated plants); the “disease control grading … (WHEAT)” value is 4. Moreover, in experiment [1], the “disease control grading … (APPLE)” value is 4 and the “disease control grading, […] (VINE)” value is listed as 4.
For `CO/C=C(/C(=O)OC)c1ccccc1COc1cccc(Oc2ccccc2)c1` [165 (Table I)], in the experiment on Erysiphe graminis, the “disease control grading … (BARLEY)” value amounted to 4. Also, in experiment [1], the “disease control grading … (PEANUT)” value is 0 (60-100% of disease on untreated plants); the “disease control grading, P[…] (RICE)” value was 4; the “disease control grading, PH[…] (TOMATO)” value came to 4; the “disease control grading … (WHEAT)” value was 4. For the same compound, in experiment [1], the “disease control grading … (APPLE)” value is on record as 0 (60-100% of disease on untreated plants) and the “disease control grading, […] (VINE)” value was 4.
Regarding `CO/C=C(/C(=O)OC)c1ccccc1COc1ccccc1[N+](=O)[O-]` [33 (Table I)], in the experiment on Erysiphe graminis, the “disease control grading … (BARLEY)” value was 2 (6-25% of disease on untreated plants). In experiment [1], the “disease control grading … (PEANUT)” value was found to be 4; the “disease control grading, P[…] (RICE)” value is recorded as 4; the “disease control grading, PH[…] (TOMATO)” value is recorded as 3 (trace −5% of disease on untreated plants); the “disease control grading … (WHEAT)” value came out at 4. Besides, in experiment [1], the “disease control grading … (APPLE)” value was determined as 4 and the “disease control grading, […] (VINE)” value was 4.
As for `CO/C=C(/C(=O)OC)c1ccccc1COc1ccc(F)cc1` [156 (Table I)], in the experiment on Erysiphe graminis, the “disease control grading … (BARLEY)” value is 4. Moreover, in experiment [1], the “disease control grading … (PEANUT)” value was 4; the “disease control grading, P[…] (RICE)” value is reported as 0 (60-100% of disease on untreated plants); the “disease control grading, PH[…] (TOMATO)” value was 4; the “disease control grading … (WHEAT)” value is 4. Further, in experiment [1], the “disease control grading … (APPLE)” value was 4 and the “disease control grading, […] (VINE)” value is on record as 4.
Consider `CO/C=C(/C(=O)OC)c1ccccc1COc1cc(Cl)cc(Cl)c1` [162 (Table I)], for which, in the experiment on Erysiphe graminis, the “disease control grading … (BARLEY)” value turned out to be 4. For the same compound, in experiment [1], the “disease control grading … (PEANUT)” value stood at 4; the “disease control grading, P[…] (RICE)” value was 2 (6-25% of disease on untreated plants); the “disease control grading, PH[…] (TOMATO)” value was 3 (trace −5% of disease on untreated plants); the “disease control grading … (WHEAT)” value is 4. In experiment [1], the “disease control grading … (APPLE)” value is reported as 4 and the “disease control grading, […] (VINE)” value amounted to 4.
On to `CO/C=C(/C(=O)OC)c1ccccc1COc1cccc(Oc2ccccc2Cl)c1` [182 (Table I)], for which the “disease control grading … (BARLEY)” value in the experiment on Erysiphe graminis was determined as 4. Besides, in experiment [1], the “disease control grading … (PEANUT)” value came out at 4; the “disease control grading, P[…] (RICE)” value was 4; the “disease control grading, PH[…] (TOMATO)” value turned out to be 4; the “disease control grading … (WHEAT)” value is recorded as 4. Also, in experiment [1], the “disease control grading … (APPLE)” value is 3 (trace −5% of disease on untreated plants) and the “disease control grading, […] (VINE)” value amounted to 4.
Take `CO/C=C(/C(=O)OC)c1ccccc1COc1cccc(OCc2ccccc2)c1` [184 (Table I)]: the “disease control grading … (BARLEY)” value in the experiment with Erysiphe graminis is on record as 4. In experiment [1], the “disease control grading … (PEANUT)” value was 4; the “disease control grading, P[…] (RICE)” value is 3 (trace −5% of disease on untreated plants); the “disease control grading, PH[…] (TOMATO)” value is listed as 4; the “disease control grading … (WHEAT)” value was found to be 4. In addition, in experiment [1], the “disease control grading … (APPLE)” value was 4 and the “disease control grading, […] (VINE)” value was 4.
On to `CO/C=C(/C(=O)OC)c1ccccc1COc1ccccc1Br` [24 (Table I)], for which, in the experiment with Erysiphe graminis, the “disease control grading … (BARLEY)” value turned out to be 4. In experiment [1], the “disease control grading … (PEANUT)” value came out at 4; the “disease control grading, P[…] (RICE)” value stood at 4; the “disease control grading, PH[…] (TOMATO)” value is 4; the “disease control grading … (WHEAT)” value worked out at 4. Besides, in experiment [1], the “disease control grading … (APPLE)” value turned out to be 4 and the “disease control grading, […] (VINE)” value was 4.
For the compound `CO/C=C(/C(=O)OC)c1ccccc1COc1cc(Cl)ccc1Cl` [158 (Table I)], the “disease control grading … (BARLEY)” value in the experiment with Erysiphe graminis is reported as 4. In experiment [1], the “disease control grading … (PEANUT)” value came to 4; the “disease control grading, P[…] (RICE)” value was determined as 4; the “disease control grading, PH[…] (TOMATO)” value is on record as 3 (trace −5% of disease on untreated plants); the “disease control grading … (WHEAT)” value amounted to 4. For the same compound, in experiment [1], the “disease control grading … (APPLE)” value was found to be 4 and the “disease control grading, […] (VINE)” value is reported as 4.

Values taken from patent publication US6653258B1 (priority 1987, dated 2003).
